In data set [1] the test system is Mycobacterium avium. Briefly: The compound was tested for its ability to inhibit the growth of Mycobacterium avium. Type of data set: functional.
The nature of data set [2]: Solubility in DMSO:water(9:1). It counts as physicochemical. As to conditions: read-out: S.
The subject of data set [3] is Mycobacterium tuberculosis. Kind of data set: The compound was tested for its ability to inhibit the growth of Mycobacterium tuberculosis strain H6/99. Type of data set: functional.
The test system of data set [4] is Mycobacterium tuberculosis. Briefly: The compound was tested for its ability to inhibit the growth of Mycobacterium tuberculosis strain H37Rv. Type of data set: functional.
The test system of data set [5] is Mycobacterium avium. Kind of data set: The compound was tested for its ability to inhibit the growth of Mycobacterium avium; Resistant. Type of data set: functional, organism-based.
Data set [6] has as its system Mycobacterium tuberculosis. Briefly: The compound was tested for its ability to inhibit the growth of Mycobacterium tuberculosis strain H37Rv; Sensitive. Type of data set: functional, organism-based.

Each structure is given as a SMILES string. Values after ≈ are worked out from the molar mass of the structure shown.

Consider 14 molecules from ChEMBL document CHEMBL1132871, “Antimycobacterial activity of ionic fullerene derivatives” (Bioorg Med Chem Lett, 2000).

What is called MIC is the lowest concentration found to suppress growth.

For `COCCOCCOCC1C23C4=C5C6=C7C8c9c(c%10c%11c%12c%13c%14c%15c(c4c4c%16c%17c%18c%19c%20c(c6c6c%21c%22c(c%23c9c%11c9c%23c%11c%22c%22c(c%20%21)c%19c%19c%17c%17c(c%15%16)c%14c%14c%12c9c9c%11c%22c%19c%17c%149)C68)C5C4%18)C2C%10%13)C73C[N+]1(C)C.[I-]` (stereo not given), the MIC came to 500 µg/mL against Mycobacterium avium [1], 5 µg/mL in data set [3] and 50 µg/mL in data set [4]. Also, in data set [2], the solubility is 15 µM.

On to `CO[C@H]1/C=C/O[C@@]2(C)Oc3c(C)c(O)c4c(O)c(c(/C=N/N5CCN(C)CC5)c(O)c4c3C2=O)NC(=O)/C(C)=C\C=C\[C@H](C)[C@H](O)[C@@H](C)[C@@H](O)[C@@H](C)[C@H](OC(C)=O)[C@@H]1C`, for which the MIC result with Mycobacterium avium [5] is “Resistant”; in data set [6], “Sensitive”.

With `COCCOCCOCCN1CC23C4=C5C6=C7c8c9c%10c%11c%12c%13c%14c(c2c2c%15c%16c%17c%18c%19c(c5c5c%20c%21c%22c%23c(c8C%22C65)c%10c5c%11c6c%13c8c(c%15%14)c%16c%10c%18c%11c(c%20%19)c%21c%13c%23c5c5c%13c%11c%10c8c65)C%17C42)C%12C9C73C1COCCOCCOC` (stereo not given), the MIC was found to be 50 µg/mL (≈ 47.7 µM) in the data set on Mycobacterium avium [1], 500 µg/mL (≈ 477 µM) in data set [3] and 500 µg/mL (≈ 477 µM) in data set [4]. Also, in data set [2], the solubility turned out to be 30 µM (≈ 31.4 µg/mL).

`COCCOCCOCC1N(C)CC23C4=C5C6=C7c8c9c%10c%11c%12c%13c%14c(c2c2c%15c%16c%17c%18c%19c(c5c5c%20c%21c%22c%23c(c8C%22C65)c%10c5c%11c6c%13c8c(c%15%14)c%16c%10c%18c%11c(c%20%19)c%21c%13c%23c5c5c%13c%11c%10c8c65)C%17C42)C%12C9C713` (stereo not given): in data set [2], the solubility was 15 µM (≈ 13.7 µg/mL).

Consider `COCCOCCOCC[N+]1(C)CC23C4=C5C6=C7c8c9c%10c%11c%12c%13c%14c(c2c2c%15c%16c%17c%18c%19c(c5c5c%20c%21c%22c%23c(c8C%22C65)c%10c5c%11c6c%13c8c(c%15%14)c%16c%10c%18c%11c(c%20%19)c%21c%13c%23c5c5c%13c%11c%10c8c65)C%17C42)C%12C9C73C1COCCOCCOC.[I-]` (stereo not given), for which the MIC against Mycobacterium avium [1] is 50 µg/mL; in data set [3] it was 5 µg/mL; in data set [4] it was 50 µg/mL. Also, the solubility in data set [2] is 95 µM.

On to `COCCOCCOCC1CCCN1C` (stereo not given), for which the MIC (against Mycobacterium avium [1]; in data set [3]; in data set [4]) was over 500 µg/mL in each case.

Take `COCCOCCOCCN1CCCC1COCCOCCOC` (stereo not given): the minimum inhibitory concentration (MIC) (against Mycobacterium avium [1]; in data set [3]; in data set [4]) was over 500 µg/mL in each case.

With `NNC(=O)c1ccncc1`, the MIC entry with Mycobacterium avium [5] is reported as “Resistant”; in data set [6], “Sensitive”.

Take `COCCOCCOCC[N+]1(C)CCCC1COCCOCCOC.[I-]` (stereo not given): the MIC (with Mycobacterium avium [1]; in data set [3]; in data set [4]) was over 500 µg/mL in each case.

Regarding `COCCOCCOCCN1CCCC1`, the MIC (in the data set with Mycobacterium avium [1]; in data set [3]; in data set [4]) was over 500 µg/mL throughout.

As for `COCCOCCOCC[N+]1(C)CCCC1.[I-]`, the MIC (against Mycobacterium avium [1]; in data set [3]; in data set [4]) was over 500 µg/mL throughout.

Regarding `COCCOCCOCC[N+]1(C)CC23C4=C5C6=C7c8c9c%10c%11c%12c%13c%14c(c2c2c%15c%16c%17c%18c%19c(c5c5c%20c%21c%22c%23c(c8C%22C65)c%10c5c%11c6c%13c8c(c%15%14)c%16c%10c%18c%11c(c%20%19)c%21c%13c%23c5c5c%13c%11c%10c8c65)C%17C42)C%12C9C73C1.[I-]` (stereo not given), the results for the MIC (in the data set with Mycobacterium avium [1]; in data set [3]; in data set [4]) were 500 µg/mL, 500 µg/mL and 50 µg/mL, respectively. Further, the solubility in data set [2] stood at 43 µM.

On to `COCCOCCOCC1CCC[N+]1(C)C.[I-]` (stereo not given), for which the MIC (in the data set with Mycobacterium avium [1]; in data set [3]; in data set [4]) was over 500 µg/mL in each case.

Regarding `COCCOCCOCCN1CC23C4=C5C6=C7c8c9c%10c%11c%12c%13c%14c(c2c2c%15c%16c%17c%18c%19c(c5c5c%20c%21c%22c%23c(c8C%22C65)c%10c5c%11c6c%13c8c(c%15%14)c%16c%10c%18c%11c(c%20%19)c%21c%13c%23c5c5c%13c%11c%10c8c65)C%17C42)C%12C9C73C1` (stereo not given), the solubility in data set [2] was found to be 15 µM (≈ 13.7 µg/mL).
